Test results as given in ChEMBL document CHEMBL5154801, “Virtual screening and crystallographic studies reveal an unexpected γ-lactone derivative active against MptpB as a potential antitubercular agent” (Eur J Med Chem, 2022).

Legend:
[1] = target: T1, Phosphotyrosine-protein phosphatase PTPB (Mycobacterium tuberculosis) (UniProt P96830); assay: Inhibition of Mycobacterium tuberculosis PTPB expressed in Escherichia coli BL21 (DE3) assessed as residual activity at 100 uM using p-nitrophenyl phosphate as substrate relative to control
T1 sequence (whole entry): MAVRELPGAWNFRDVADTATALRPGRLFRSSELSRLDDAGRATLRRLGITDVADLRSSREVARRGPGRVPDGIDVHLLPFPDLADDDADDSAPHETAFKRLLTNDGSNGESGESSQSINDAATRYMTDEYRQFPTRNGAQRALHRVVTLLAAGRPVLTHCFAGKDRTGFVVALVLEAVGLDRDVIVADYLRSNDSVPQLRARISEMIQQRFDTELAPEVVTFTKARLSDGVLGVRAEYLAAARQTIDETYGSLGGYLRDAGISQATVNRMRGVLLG

[2] = target: T2, Phosphotyrosine-protein phosphatase PTPB (Mycobacterium tuberculosis, UniProt P96830); assay: Inhibition of Mycobacterium tuberculosis PTPB expressed in Escherichia coli BL21 (DE3) assessed as residual activity
T2 sequence (P96830 whole entry): T1 sequence (whole entry)

[3] = target: T2, Phosphotyrosine-protein phosphatase PTPB; assay: Inhibition of Mycobacterium tuberculosis PTPB expressed in Escherichia coli BL21 (DE3) in presence of BSA by PAINS assay
[4] = target: T2, Phosphotyrosine-protein phosphatase PTPB; assay: Inhibition of Mycobacterium tuberculosis PTPB expressed in Escherichia coli BL21 (DE3) in presence of DTT by PAINS assay
[5] = Cytotoxicity against human WI-38 cells assessed as reduction in cell viability at 200 to 0.02 uM measured after 96 hrs; assay type: toxicity, cell-based
[6] = Cytotoxicity against human MRC5 cells assessed as reduction in cell viability at 200 to 0.02 uM measured after 96 hrs; assay type: toxicity, cell-based

Row | SMILES | Activity [1] [%] | IC50 [2] [µM] | other results
1 | COc1cccc(C2CC(O)=Nc3c(C(=O)O)cn(-c4cccc(F)c4)c32)c1OC (stereo not drawn) | 101 | – | –
2 | CC1(C)Cc2c(sc(NC(=O)C(=O)O)c2C(=O)O)CO1 | 104 | – | –
3 | Cc1onc(C(=O)O)c1-c1cccc(-c2cc(Cl)c(O)c(Cl)c2)c1 | 10.9 | 25.8 | –
4 | O=C(O)C(=O)/C(=C/c1ccccc1C(F)(F)F)c1ccc2ccccc2n1 | 24.3 | 48.1 | IC50 [3]: 51.6 µM; IC50 [4]: 47 µM; IC50 at 96 h [5]: > 200 µM; IC50 at 96 h [6]: > 200 µM
5 | Cc1nc(-c2cccnc2-n2cnc(C(=O)O)c2)no1 | 83.2 | – | –
6 | O=C1OC(c2ccccc2C(F)(F)F)C(c2ccc3ccccc3n2)=C1O (stereo in doubt; 1-E1) [listing 1 of 2 here] | – | 31.1 | –
7 | O=C1OC(c2ccccc2C(F)(F)F)C(c2ccc3ccccc3n2)=C1O (stereo in doubt; 1-E2) [listing 1 of 2 here] | 27.7 | – | –
8 | CC(C)c1nnc(NC(=O)C(=O)O)s1 | 87.2 | – | –
9 | O=C1OC(c2ccccc2C(F)(F)F)C(c2ccc3ccccc3n2)=C1O (stereo in doubt; 1-E1) [listing 2 of 2 here] | 14.2 | – | –
10 | CCOC(=O)c1c(NC(=O)C(=O)O)sc2c1CCCC2 | 69.5 | – | –
11 | O=C(O)c1cc(-c2cc(Cl)ccc2Cl)[nH]n1 | 109 | – | –
12 | O=C1OC(c2ccccc2C(F)(F)F)C(c2ccc3ccccc3n2)=C1O (stereo in doubt; 1-E2) [listing 2 of 2 here] | – | 72.2 | –
